Tests used:
Settings in all cases: incubation time: 72 h
[1] = tested on: BT-474; assay: normalised response (% of control), CellTox Green; higher = less cell death (100 = DMSO, 0 = benzethonium chloride kill control)
In short: (§1)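 Two readouts were taken after 72 h: CellTox Green fluorescence (485/520 nm) first, then CellTiter-Glo luminescence after 10 min at room temperature. Breast cancer cell lines had been seeded as 20 µl suspension into 384-well plates holding compound at 5 concentrations in 10-fold steps across a compound-specific 10,000-fold range. Each value is a normalised signal at a single concentration, with plates scaled to 0.1 % DMSO (100) and a positive kill control (0).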

[2] = tested on: BT-549; assay: as above
In short: as §1

[3] = tested on: CAL-120; assay: as above
In short: as §1

[4] = tested on: CAL-148; assay: as above
In short: as §1

[5] = tested on: CAL-51; assay: as above
In short: as §1

[6] = tested on: CAL-85-1; assay: as above
In short: as §1

[7] = tested on: DU-4475; assay: as above
In short: as §1

[8] = tested on: HCC1143; assay: as above
In short: as §1

[9] = tested on: HCC1599; assay: as above
In short: as §1

[10] = tested on: HCC1937; assay: as above
In short: as §1

[11] = tested on: HDQ-P1; assay: as above
In short: as §1

[12] = tested on: Hs578T; assay: as above
In short: as §1

[13] = tested on: MCF-10A; assay: as above
In short: as §1

[14] = tested on: MDA-MB-231; assay: as above
In short: as §1

[15] = tested on: MDA-MB-436; assay: as above
In short: as §1

[16] = tested on: MDA-MB-453; assay: as above
In short: as §1

[17] = tested on: MDA-MB-468; assay: as above
In short: as §1

[18] = tested on: MFM-223; assay: as above
In short: as §1

[19] = tested on: BT-474; assay: normalised response (% of control), CellTiter-Glo; higher = more viable cells (100 = DMSO, 0 = benzethonium chloride kill control)
Description: (§2)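 DSRT, 72 h incubation, CellTox Green / CellTiter-Glo readout. Signal is normalised to DMSO and benzethonium chloride controls. Value is the normalised response at dose 3.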

[20] = tested on: BT-549; assay: as above
Description: as §2

[21] = tested on: CAL-120; assay: as above
Description: as §2

[22] = tested on: CAL-148; assay: as above
Description: as §2

[23] = tested on: CAL-51; assay: as above
Description: as §2

[24] = tested on: CAL-85-1; assay: as above
Description: as §2

[25] = tested on: DU-4475; assay: as above
Description: as §2

[26] = tested on: HCC1143; assay: as above
Description: as §2

[27] = tested on: HCC1599; assay: as above
Description: as §2

[28] = tested on: HCC1937; assay: as above
Description: as §2

[29] = tested on: HDQ-P1; assay: as above
Description: as §2

[30] = tested on: Hs578T; assay: as above
Description: as §2

[31] = tested on: MCF-10A; assay: as above
Description: as §2

[32] = tested on: MDA-MB-231; assay: as above
Description: as §2

[33] = tested on: MDA-MB-436; assay: as above
Description: as §2

[34] = tested on: MDA-MB-453; assay: as above
Description: as §2

[35] = tested on: MDA-MB-468; assay: as above
Description: as §2

[36] = tested on: MFM-223; assay: as above
Description: as §2

[37] = tested on: SK-BR-3; assay: as above
Description: as §2

With `COc1cc2c(NC3CCN(C(C)C)CC3)nc(N3CCC(F)(F)CC3)nc2cc1OCCCN1CCCC1` [UNC0642] (100 nM) the normalised response [1] was 100%, the normalised response [2] was 101% and the normalised response [3] was 101%. The normalised response [4] was 89.8%, the normalised response [5] was 98.1% and the normalised response [6] was 105%. For the same molecule, the normalised response [7] was 97.5%, the normalised response [8] was 65.3% and the normalised response [9] was 99.2%. For the same molecule, the normalised response [10] was 72.7%, the normalised response [11] was 80.7% and the normalised response [12] was 90.2%. The normalised response [13] was 99.4%, the normalised response [14] was 107% and the normalised response [15] was 63.9%. It also gave a normalised response [16] of 108%, a normalised response [17] of 131% and a normalised response [18] of 101%. The normalised response [19] was 103%, the normalised response [20] was 96.5% and the normalised response [21] was 92%. For the same molecule, the normalised response [22] was 96.5%, the normalised response [23] was 97.9% and the normalised response [24] was 98.5%. For the same molecule, the normalised response [25] was 89.9%, the normalised response [26] was 96.1% and the normalised response [27] was 93.7%. It also gave a normalised response [28] of 90.3%, a normalised response [29] of 99.6% and a normalised response [30] of 98.6%. It also gave a normalised response [31] of 94.8%, a normalised response [32] of 95% and a normalised response [33] of 97.9%. For the same molecule, the normalised response [34] was 108%, the normalised response [35] was 105% and the normalised response [36] was 96.2%. It also gave a normalised response [37] of 96%.

In the case of `CNC(=O)c1cc(Oc2ccc(NC(=O)Nc3ccc(Cl)c(C(F)(F)F)c3)c(F)c2)ccn1` [Regorafenib] (100 nM), the normalised response [1] is reported as 98.9%, the normalised response [2] is reported as 109% and the normalised response [3] is reported as 99.8%. For the same molecule, the normalised response [4] was 101%, the normalised response [5] was 105% and the normalised response [6] was 108%. The normalised response [7] was 103%, the normalised response [8] was 87.8% and the normalised response [9] was 108%. It also gave a normalised response [10] of 99.6%, a normalised response [11] of 101% and a normalised response [12] of 99.4%. The normalised response [13] was 98.1%, the normalised response [14] was 74.6% and the normalised response [15] was 90.9%. For the same molecule, the normalised response [16] was 103%, the normalised response [17] was 135% and the normalised response [18] was 88.1%. It also gave a normalised response [19] of 99%, a normalised response [20] of 103% and a normalised response [21] of 98.1%. The normalised response [22] was 112%, the normalised response [23] was 97.5% and the normalised response [24] was 99.8%. It also gave a normalised response [25] of 100%, a normalised response [26] of 100% and a normalised response [27] of 91.2%. For the same molecule, the normalised response [28] was 100%, the normalised response [29] was 98.8% and the normalised response [30] was 108%. It also gave a normalised response [31] of 105%, a normalised response [32] of 101% and a normalised response [33] of 106%. The normalised response [34] was 105%, the normalised response [35] was 94.3% and the normalised response [36] was 102%. For the same molecule, the normalised response [37] was 105%.

`CCc1c2c(nc3ccc(OC(=O)N4CCC(N5CCCCC5)CC4)cc13)-c1cc3c(c(=O)n1C2)COC(=O)[C@]3(O)CC` [Irinotecan] (100 nM) gave a normalised response [1] of 92.4%, a normalised response [2] of 93.4% and a normalised response [3] of 98.7%. For the same molecule, the normalised response [4] was 104%, the normalised response [5] was 106% and the normalised response [6] was 94.9%. The normalised response [7] was 101%, the normalised response [8] was 86% and the normalised response [9] was 99.7%. It also gave a normalised response [10] of 98%, a normalised response [11] of 117% and a normalised response [12] of 77.4%. The normalised response [13] was 109%, the normalised response [14] was 89.2% and the normalised response [15] was 93.4%. For the same molecule, the normalised response [16] was 102%, the normalised response [17] was 99.2% and the normalised response [18] was 73.8%. The normalised response [19] was 99.2%, the normalised response [20] was 95.3% and the normalised response [21] was 92.5%. It also gave a normalised response [22] of 96.6%, a normalised response [23] of 109% and a normalised response [24] of 103%. The normalised response [25] was 98.8%, the normalised response [26] was 96% and the normalised response [27] was 112%. For the same molecule, the normalised response [28] was 94.8%, the normalised response [29] was 96.5% and the normalised response [30] was 98%. It also gave a normalised response [31] of 95.4%, a normalised response [32] of 96.2% and a normalised response [33] of 93.8%. It also gave a normalised response [34] of 102%, a normalised response [35] of 111% and a normalised response [36] of 106%. For the same molecule, the normalised response [37] was 100%.

For `Cc1[nH]c2ccccc2c1CCNCc1ccc(/C=C/C(=O)NO)cc1` [Panobinostat] (10 nM), the normalised response [1] was 75.8%, the normalised response [2] was 106% and the normalised response [3] was 99.7%. The normalised response [4] was 83.1%, the normalised response [5] was 99.8% and the normalised response [6] was 89.9%. The normalised response [7] was 95.4%, the normalised response [8] was 76.1% and the normalised response [9] was 96.4%. The normalised response [10] was 99.2%, the normalised response [11] was 102% and the normalised response [12] was 106%. For the same molecule, the normalised response [13] was 110%, the normalised response [14] was 86.3% and the normalised response [15] was 82.3%. The normalised response [16] was 81.9%, the normalised response [17] was 70.6% and the normalised response [18] was 94.9%. It also gave a normalised response [19] of 94.3%, a normalised response [20] of 99.7% and a normalised response [21] of 85.3%. It also gave a normalised response [22] of 83.1%, a normalised response [23] of 73.7% and a normalised response [24] of 77.1%. For the same molecule, the normalised response [25] was 84%, the normalised response [26] was 88.5% and the normalised response [27] was 94.8%. The normalised response [28] was 81.5%, the normalised response [29] was 93.3% and the normalised response [30] was 88.1%. For the same molecule, the normalised response [31] was 99.6%, the normalised response [32] was 88.4% and the normalised response [33] was 83.5%. The normalised response [34] was 50.6%, the normalised response [35] was 84.6% and the normalised response [36] was 90.8%. It also gave a normalised response [37] of 65.8%.

`CNC(=O)c1ccc(N2C(=S)N(c3ccc(C#N)c(C(F)(F)F)c3)C(=O)C2(C)C)cc1F` [Enzalutamide] (100 nM) gave a normalised response [1] of 103%, a normalised response [2] of 103% and a normalised response [3] of 106%. The normalised response [4] was 100%, the normalised response [5] was 74.8% and the normalised response [6] was 117%. The normalised response [7] was 107%, the normalised response [8] was 111% and the normalised response [9] was 103%. It also gave a normalised response [10] of 94.6%, a normalised response [11] of 71.9% and a normalised response [12] of 95.1%. It also gave a normalised response [13] of 86.1%, a normalised response [14] of 113% and a normalised response [15] of 96.9%. For the same molecule, the normalised response [16] was 106%, the normalised response [17] was 126% and the normalised response [18] was 101%. For the same molecule, the normalised response [19] was 99.7%, the normalised response [20] was 97.1% and the normalised response [21] was 106%. It also gave a normalised response [22] of 106%, a normalised response [23] of 70.4% and a normalised response [24] of 108%. For the same molecule, the normalised response [25] was 99.1%, the normalised response [26] was 101% and the normalised response [27] was 113%. It also gave a normalised response [28] of 91.1%, a normalised response [29] of 97.4% and a normalised response [30] of 102%. It also gave a normalised response [31] of 108%, a normalised response [32] of 95.9% and a normalised response [33] of 101%. It also gave a normalised response [34] of 105%, a normalised response [35] of 102% and a normalised response [36] of 104%. For the same molecule, the normalised response [37] was 101%.

— the supplement of paper PMC4862054
